Source: patent publication US7973075B2, “Kainate receptor-selective epimeric analogs of dysiherbaine” (priority 2007, dated 2011)
“Also recorded” adds a separate entry of the source. Like-named read-outs stand apart in the source and are kept apart here.

Columns and labels:
GluR5-2a = molecular target: T1, GluR5-2a (Rattus norvegicus, UniProt P22756, DEL402-416); assay: Whole-cell patch clamp recordings, transfected HEK-293-T/17 cells, Example 2; type: cell-based; settings: for recovery of glutamate-evoked currents after analog application, GluR5-2a: 30 μM analog; for agonist activity: analog-evoked currents from GluR5-2a receptors (words): 1 s test application of the analog at a high concentration (10-100 μM); for inhibition of glutamate-evoked current, GluR5-2a: pre-application of 1 μM analog, 10 mM glutamate; for time constant for recovery of glutamate-evoked currents, τ: after 2.5 min application of 30 μM analog
T1 construct: expressed in transfected cells; host or cells: HEK-293-T/17
T1 sequence (P22756 with tags, fused parts or gaps isoform P22756-2 limits assumed, stated change not applied): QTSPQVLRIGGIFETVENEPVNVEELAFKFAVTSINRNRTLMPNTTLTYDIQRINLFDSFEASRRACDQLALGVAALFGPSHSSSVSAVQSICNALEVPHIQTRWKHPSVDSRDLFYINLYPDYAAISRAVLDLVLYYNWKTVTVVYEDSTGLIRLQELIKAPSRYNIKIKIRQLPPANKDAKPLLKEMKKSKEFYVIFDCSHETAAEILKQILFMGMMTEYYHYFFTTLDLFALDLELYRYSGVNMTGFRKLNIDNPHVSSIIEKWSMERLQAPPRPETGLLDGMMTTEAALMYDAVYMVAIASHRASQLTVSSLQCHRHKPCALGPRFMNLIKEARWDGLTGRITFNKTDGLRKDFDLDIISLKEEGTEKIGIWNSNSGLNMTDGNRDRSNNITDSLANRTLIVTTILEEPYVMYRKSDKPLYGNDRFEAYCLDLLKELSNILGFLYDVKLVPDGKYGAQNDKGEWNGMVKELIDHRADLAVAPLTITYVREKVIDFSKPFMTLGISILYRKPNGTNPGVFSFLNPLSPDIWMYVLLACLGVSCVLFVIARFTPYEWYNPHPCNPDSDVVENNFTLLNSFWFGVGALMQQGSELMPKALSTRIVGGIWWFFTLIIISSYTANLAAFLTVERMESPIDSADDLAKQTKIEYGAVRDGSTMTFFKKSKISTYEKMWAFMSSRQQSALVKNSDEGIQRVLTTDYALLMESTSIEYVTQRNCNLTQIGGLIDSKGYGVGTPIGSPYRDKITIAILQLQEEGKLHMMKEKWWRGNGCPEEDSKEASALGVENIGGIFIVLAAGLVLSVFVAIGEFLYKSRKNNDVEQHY
Experimental: Cell Culture and Electrophysiology. HEK-293-T/17 cells were maintained in Dulbecco's modified Eagle's medium (DMEM) supplemented with 100 μg/mL penicillin, 100 μg/mL streptomycin, and 10% heat inactivated fetal bovine serum. One day before transfection, HEK-T/17 cells were plated at low density on glass coverslips coated with 100 μg/ml poly-D-lysine and 100 μg/ml collagen. Cells were transfected with receptor cDNAs ([…]) in combination with enhanced green fluorescent protein (eGFP) cDNA for visualization of transfected cells. Transfections were carried out with Fugene6 (Roche Applied Science) according to the manufacturer's protocol and used 2-3 days following transfection. Internal solution consisted of 110 mM CsF, 30 mM CsCl, 4 mM NaCl, 0.5 mM CaCl2, 10 mM HEPES, and 5 mM EGTA, and was adjusted to pH=7.3 with CsOH. The external solution contained 150 mM NaCl, 2.8 mM KCI, 2 mM CaCl2, 1 mM MgCl2, and 10 mM HEPES, adjusted to pH=7.3 with NaOH. Patch electrodes from thick-walled borosilicate glass (Warner Instruments, Hamden, Conn.) were pulled to a final resistance of 1.5 to 2.5 MO after fire polishing. […] To determine the pre-desensitization IC50 of selected analogs, several control glutamate (10 mM) applications were followed by a 2.5 minute application of various concentrations of 8-deoxy-neoDH, 9-deoxy-neoDH, or MSVIII-19, after which the analogs were co-applied with glutamate. A similar protocol was followed to measure the recovery of glutamate-evoked currents, with the exception that the analogs were not co-applied with glutamate. Whole cell patch clamp recordings were carried out using an Axopatch 200B amplifier (Axon Instruments). Data were analyzed with Origin 7.5 (OriginLab Corp.), and Prism4 (GraphPad Software Inc.); inhibition-response curves were plotted and fit with a one-site competition curve constrained to fixed minima (0) and maxima (100).
Because neoDH and its natural analog, dysiherbaine (DH), both act as KAR agonists, we tested each of the analogs for agonist activity using whole-cell patch clamp recordings. Application of saturating concentrations of glutamate (10 mM) to a transiently transfected HEK-293-T/17 cell was first done to obtain a rapidly activating and desensitizing control current; this was then followed by a test application of the analog at a high concentration (10-100 μM).
9-deoxy-neoDH and the di-deoxy antagonist, MSVIII-19, have very similar binding profiles on GluR5-2a and other subunits (Sanders et al., 2005), but both their functional activities and behavioral properties differ. 9-deoxy-neoDH elicits small but reproducible currents from GluR5-2a receptors (FIG. 8B), whereas MSVIII-19 behaves as an antagonist (Sanders et al., 2005). To further compare the activity of these compounds and the high-affinity agonist 8-deoxy-neoDH on GluR5-2a receptors, we determined their respective IC50s for pre-desensitization of the receptor (FIG. 9). Responses to 10 mM glutamate were elicited to determine the control current amplitudes for GluR5-2a expressing cells; receptors were then pre-desensitized with low concentrations of the analog (8-deoxy-neoDH or 9-deoxy-neoDH) before test co-applications with glutamate.
Several analogs, including the parent compounds DH and neoDH, induce a very stable, ligand-bound desensitized conformation of GluR5-2a and GluR6a receptors that occludes subsequent activation of the receptors for long periods of time. We measured the duration of the interaction of Group I analogs with GluR5-2a receptors by determining the time course of recovery of glutamate-evoked currents after application of the analogs (for 2.5 min) (FIG. 10). In FIG. 10A, traces on the left are representative control glutamate-evoked currents; traces on the right are glutamate-evoked currents ten minutes after exposure to 8-deoxy-neoDH, 9-deoxy-neoDH, or MSVIII-19 (each at 30 μM). […]

mice = settings: Shoji et al., 2006, cited from earlier work; for ED50 seizure activity: i.c.v. injection, mice; for convulsant behavior, from the literature: i.c.v., Sasaki et al., 1999, Sakai et al., 2001a
GluR1(i) = molecular target: T2, GluR1(i) (Rattus norvegicus, UniProt P19490); assay: Radioligand binding ([3H]AMPA displacement), HEK-293-T/17 membranes, Example 2; settings: Cheng-Prusoff
T2 construct: expressed in transfected cells; host or cells: HEK-293-T/17
T2 sequence (P19490 19-907 isoform P19490-2 limits assumed): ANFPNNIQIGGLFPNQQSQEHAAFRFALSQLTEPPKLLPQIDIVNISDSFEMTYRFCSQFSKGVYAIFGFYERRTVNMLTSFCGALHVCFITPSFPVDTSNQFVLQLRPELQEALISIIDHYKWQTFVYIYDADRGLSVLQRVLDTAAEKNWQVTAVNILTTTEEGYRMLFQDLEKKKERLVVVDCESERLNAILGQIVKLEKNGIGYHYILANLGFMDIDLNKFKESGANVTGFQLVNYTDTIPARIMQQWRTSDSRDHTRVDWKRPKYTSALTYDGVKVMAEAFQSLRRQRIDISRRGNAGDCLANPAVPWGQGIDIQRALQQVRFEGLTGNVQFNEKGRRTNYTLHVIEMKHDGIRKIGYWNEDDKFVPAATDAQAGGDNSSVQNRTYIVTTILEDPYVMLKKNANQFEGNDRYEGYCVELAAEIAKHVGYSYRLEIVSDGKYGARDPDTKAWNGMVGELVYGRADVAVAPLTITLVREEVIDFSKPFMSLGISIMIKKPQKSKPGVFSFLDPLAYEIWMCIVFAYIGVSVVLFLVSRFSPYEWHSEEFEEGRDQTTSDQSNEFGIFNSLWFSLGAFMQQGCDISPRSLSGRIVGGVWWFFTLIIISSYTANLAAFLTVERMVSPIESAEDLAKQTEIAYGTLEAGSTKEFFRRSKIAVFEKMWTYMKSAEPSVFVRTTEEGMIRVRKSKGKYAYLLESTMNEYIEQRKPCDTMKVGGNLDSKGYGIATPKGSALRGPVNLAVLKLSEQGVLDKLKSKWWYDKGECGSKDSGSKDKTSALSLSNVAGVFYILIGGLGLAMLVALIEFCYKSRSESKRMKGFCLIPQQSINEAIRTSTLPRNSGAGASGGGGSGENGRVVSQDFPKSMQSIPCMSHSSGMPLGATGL
Experimental: (§1) Radioligand binding. Membrane preparations from HEK-293-T/17 cells were prepared and used in radioligand binding assays as described previously (Sanders et al., 2005). Unlabeled analogs were used to displace [3H]kainate (10-20 nM, PerkinElmer Life and Analytical Sciences, Boston, Mass.) or [3H]AMPA (20 nM, PerkinElmer Life and Analytical Sciences, Boston, Mass.) from KARs and AMPARs, respectively. Nonspecific binding was determined in the presence of 1 mM glutamate. After 1 hour incubation at 4° C., samples were harvested by rapid filtration onto Whatman GF/C membranes. Upon addition of scintillation fluid, membranes were incubated for 1 hour at room temperature. A Beckman LS5000TD scintillation counter was used for quantification (Beckman Coulter Inc., Fullerton, Calif.). Data were plotted and fit with a one-site competition curve with fixed minima and maxima using Prism 4 (GraphPad Software, Inc). Ki's were calculated with the Cheng-Prusoff equation using the determined IC5o values and the radioligand Kd. Data were plotted and fit with a one-site competition curve with fixed minima (0) and maxima (100) (Prism4, GraphPad Software, Inc.). Correlation analysis was performed with these binding data and the seizure activity of each analog, represented as ED50 values.
(§2) The pharmacological profiles of the Group I analogs, 8-deoxy-neoDH and 9-deoxyneoDH, were analyzed initially in radioligand binding experiments with expressed recombinant AMPA and kainate receptor subunits. Displacement of [3H]kainate from cell membranes with a range of analog concentrations yielded IC50 values that were then used to calculate Ki values for each analog/receptor combination. Both Group 1 analogs retained high affinity only for GluR5-2a KAR subunits (FIG. 8A). […] Weak binding to other KAR and AMPAR subunits was observed, with all Ki values estimated at >10 μM (n=3-5; Table 3, FIG. 8A).
(§3) For comparison, the Ki values for neoDH and MSVIII-19 are included in the table (Sanders et al., 2005). Removal of the C9 hydroxyl eliminated binding to all receptor subunits (Ki values estimated at >100 μM), with the exception of GluR5-2a KARs.

GluR2(i) = molecular target: T3, GluR2(i) (Rattus norvegicus, UniProt P19491); assay: as above; settings: Cheng-Prusoff
T3 construct: expressed in transfected cells; host or cells: HEK-293-T/17
T3 sequence (P19491 22-883 isoform P19491-2 limits assumed): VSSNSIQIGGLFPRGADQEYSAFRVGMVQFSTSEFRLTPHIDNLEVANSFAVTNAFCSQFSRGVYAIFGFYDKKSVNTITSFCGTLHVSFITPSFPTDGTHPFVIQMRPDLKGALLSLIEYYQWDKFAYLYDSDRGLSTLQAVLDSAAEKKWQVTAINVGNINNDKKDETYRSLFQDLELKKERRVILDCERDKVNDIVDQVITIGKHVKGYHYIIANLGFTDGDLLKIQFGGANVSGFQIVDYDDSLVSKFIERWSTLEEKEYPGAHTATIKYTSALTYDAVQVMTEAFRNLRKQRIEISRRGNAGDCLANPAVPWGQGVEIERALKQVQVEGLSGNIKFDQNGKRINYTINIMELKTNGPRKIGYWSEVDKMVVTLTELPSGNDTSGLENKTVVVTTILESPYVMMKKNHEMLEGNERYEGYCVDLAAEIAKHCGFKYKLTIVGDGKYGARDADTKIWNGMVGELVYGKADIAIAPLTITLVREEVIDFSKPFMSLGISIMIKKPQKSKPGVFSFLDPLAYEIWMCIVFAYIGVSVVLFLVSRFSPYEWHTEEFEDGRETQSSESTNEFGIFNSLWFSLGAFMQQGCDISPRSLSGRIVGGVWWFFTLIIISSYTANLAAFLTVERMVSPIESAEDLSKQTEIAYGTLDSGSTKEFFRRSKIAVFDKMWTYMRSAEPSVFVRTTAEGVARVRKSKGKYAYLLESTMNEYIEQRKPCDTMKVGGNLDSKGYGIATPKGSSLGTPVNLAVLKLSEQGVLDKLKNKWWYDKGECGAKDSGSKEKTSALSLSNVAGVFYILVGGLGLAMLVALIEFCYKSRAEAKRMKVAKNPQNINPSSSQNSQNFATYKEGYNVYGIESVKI
Experimental: as §1, §2, §3

For `N[C@@H](C[C@@]1(C(=O)O)CC2OCC(O)C(O)C2O1)C(=O)O` (single isomer, unassigned) [2,4-epi-neoDH, 2,4-epi-neodysiherbaine], the “recovery of glutamate-evoked currents after analog application, GluR5-2a” value (from here on “recovery … after analog application, GluR5-2a”) (GluR5-2a) was “remained associated with the GluR5-2a receptor for many minutes”, the IC50 (GluR5-2a; 10 mM glutamate in continued presence of analog, read-out: IC50 inhibition of glutamate-evoked currents, GluR5-2a) was 7500 nM and the “agonist activity: analog-evoked currents from GluR5-2a receptors (words)” value (“agonist activity: analog-evoked currents” below) (GluR5-2a) was “failed to elicit detectable current; also recorded: antagonist (or possibly a very weak partial agonist); also recorded: fails to activate GluR5 or GluR6 receptors, even at 100 μM”. The “agonist activity: analog-evoked currents” value (GluR5-2a; listed as 2,4-epineoDH) was “fails to activate”, the ED50 seizure activity (mice) was 11.4 nmol/mouse and the ED50 seizure activity (mice; listed as 2,4epi-neoDH) was 11.4 nmol/mouse. For the same compound, the “convulsant behavior, from the literature” value (mice) was “weakly convulsant”, the Ki (GluR1(i); read-out: Ki GluR1(i)) was > 100 µM and the Ki (GluR2(i); read-out: Ki GluR2(i)) was > 100 µM.
In the case of `NC(CC1(C(=O)O)CC2OCC(O)C(O)C2O1)C(=O)O` (stereo not drawn) [9-epi-neoDH, 9-epi-neodysiherbaine], the “agonist activity: analog-evoked currents” value (GluR5-2a) is listed as “elicited rapidly activating currents; also recorded: elicited very small amplitude, weakly desensitizing currents; also recorded: very weak partial agonists”, the ED50 seizure activity (mice) is listed as 8.6 nmol/mouse and the Ki (GluR1(i); read-out: Ki GluR1(i)) is listed as > 100 µM. For the same compound, the Ki (GluR2(i); read-out: Ki GluR2(i)) was > 100 µM.
For `NC(CC1(C(=O)O)CC2OCC(O)C(O)C2O1)C(=O)O` (stereo not drawn) [8,9-epi-neoDH, 8,9-epi-neodysiherbaine], the “agonist activity: analog-evoked currents” value (GluR5-2a) was “failed to activate GluR5-2a-expressing cells”, the “agonist activity: analog-evoked currents” value (GluR5-2a; listed as 8,9epi-neoDH) was “failed to elicit a detectable current” and the “inhibition of glutamate-evoked currents in GluR5-2a-expressing cells” value (GluR5-2a; high test concentrations, data not shown) was “modestly inhibited”. The Ki (GluR1(i); read-out: Ki GluR1(i)) was > 100 µM and the Ki (GluR2(i); read-out: Ki GluR2(i)) was > 100 µM.
In the case of `N[C@@H](C[C@@]1(C(=O)O)CC2OCC(O)C(O)C2O1)C(=O)O` (single isomer, unassigned) [4-epi-neoDH, 4-epi-neodysiherbaine], the “recovery … after analog application, GluR5-2a” value (GluR5-2a) is listed as “remained associated with the GluR5-2a receptor for many minutes”, the “agonist activity: analog-evoked currents” value (GluR5-2a) is listed as “evoked small but detectable currents; also recorded: elicits large currents; also recorded: activates” and the ED50 seizure activity (mice) is listed as 1.7 nmol/mouse. For the same compound, the “convulsant behavior, from the literature” value (mice) was “weakly convulsant”, the Ki (GluR1(i); read-out: Ki GluR1(i)) was > 30 µM and the Ki (GluR2(i); read-out: Ki GluR2(i)) was > 30 µM.
In the case of `NC(CC1(C(=O)O)CC2OCC(O)C(O)C2O1)C(=O)O` (stereo not drawn) [8-epi-neoDH, 8-epi-neodysiherbaine], the “agonist activity: analog-evoked currents” value (GluR5-2a) is given as “elicited rapidly activating currents”, the “agonist activity: analog-evoked currents” value (GluR5-2a; listed as 8-epineoDH) is given as “elicited large desensitizing currents with variable kinetics” and the ED50 seizure activity (mice) is given as 283 pmol/mouse. It also gave a Ki (GluR1(i); read-out: Ki GluR1(i)) of 16 µM and a Ki (GluR2(i); read-out: Ki GluR2(i)) of 23 µM.
For `N[C@@H](C[C@]1(C(=O)O)C[C@H]2OC[C@@H](O)C[C@H]2O1)C(=O)O` [8-deoxy-neoDH], the IC50 (GluR5-2a) was 0.238 nM, the “recovery … after analog application, GluR5-2a” value (GluR5-2a) was “completely attenuated glutamate currents in response to glutamate for up to 15 min; also recorded: remained associated beyond the duration of the experiments” and the “agonist activity: analog-evoked currents” value (GluR5-2a) was “elicited currents; also recorded: full agonist, or a highly efficacious partial agonist; also recorded: full agonists or highly efficacious partial agonists; also recorded: GluR5 agonists”. For the same compound, the “inhibition of glutamate-evoked current, GluR5-2a” value (GluR5-2a) was “completely inhibited”, the ED50 seizure activity (mice) was 238 pmol/mouse and the Ki (GluR1(i); Ki GluR1(i)) was > 100 µM. For the same compound, the Ki (GluR2(i); Ki GluR2(i)) was > 100 µM.
In the case of `N[C@@H](C[C@]1(C(=O)O)C[C@H]2OCCC[C@H]2O1)C(=O)O` [MSVIII-19, 8,9-dideoxy-neoDH], the “time constant for recovery of glutamate-evoked currents, τ” value (GluR5-2a) is listed as 1.4 s, the ED50 seizure activity (mice) is listed as 6.3 nmol/mouse and the “convulsant behavior, from the literature” value (mice) is listed as “sub-seizure stereotyped behavior followed by unresponsiveness”.
In the case of `N[C@@H](C[C@]1(C(=O)O)C[C@H]2OCC[C@@H](O)[C@H]2O1)C(=O)O` [9-deoxy-neoDH], the “agonist activity: analog-evoked currents” value (GluR5-2a) is reported as “elicited currents; also recorded: very weak agonist; also recorded: GluR5 agonists”, the IC50 (GluR5-2a; 2.5 min analog application, then co-application with 10 mM glutamate, read-out: IC50 for pre-desensitization of GluR5-2a receptors) is reported as 151 nM and the “time constant for recovery of glutamate-evoked currents, τ” value (GluR5-2a) is reported as 1.5 s. For the same compound, the “inhibition of glutamate-evoked current, GluR5-2a” value (GluR5-2a) was “inhibited but did not abolish”, the ED50 seizure activity (mice) was 7.1 nmol/mouse and the Ki (GluR1(i); read-out: Ki GluR1(i)) was > 100 µM. The Ki (GluR2(i); read-out: Ki GluR2(i)) was > 100 µM.
In the case of `NC(CC1(C(=O)O)CC2OCC(F)C(O)C2O1)C(=O)O` (stereo not drawn) [9-F-8-epi-neoDH], the “agonist activity: analog-evoked currents” value (GluR5-2a) is listed as “elicited rapidly activating currents; also recorded: elicited large desensitizing currents with variable kinetics”, the ED50 seizure activity (mice) is listed as 374 pmol/mouse and the Ki (GluR1(i); read-out: Ki GluR1(i)) is listed as > 100 µM. The Ki (GluR2(i); read-out: Ki GluR2(i)) was > 100 µM.
